# Measured values reported in patent US11266686B2, “Metal complexes and methods of treatment” (PROCYPRA THERAPEUTICS LLC, priority 2013, dated 2022).
# Key:
# [1] = Kinetic solubility determination (μDISS Profiler, in situ fiber optic UV); conditions: for dissolved CuATSM as share of the total available in the assay: gluconic acid NCD at the 0.3 hour time point
# Protocol: Solubility assays were performed in 25 mL glass vials. Glass vials (4-mL, capped, VWR) were used to prepare stock solutions. All experiments were conducted using μDISS Profiler™ operated by μDISS Command Software (version 5.0.1.0). MB-8 mini-water bath with built-in stirring device was used to provide stirring during solubility measurements. Temperature during experiments was maintained at 25±2° C., and were performed in duplicate.
# An HCl/KCl based buffer at pH 1.2 and a simulated intestinal fluid at pH 6.8 (no pancreatin) were prepared according USP protocols (Vol 35/NF30). […] The concentration measurements are performed directly in the dissolution media, with processed results plotted in real time using the μDISS Profiler™ (Pion) instrument. The Profiler uses an in situ fiber optic-dip probe UV apparatus, with the probe center-positioned in the vial holding the studied compounds and 10-20 mL of media. Interference due to background turbidity was minimized when needed by a spectral second derivative method (Avdeef, A; Tsinman, O. “Miniaturized Rotating Disk Intrinsic Dissolution Rate Measurement: Effects of Buffer Capacity in Comparisons to Traditional Wood's Apparatus”, Pharm. Res., 2008, DOI: 10.1007/s11095-008-96-79-z).
# The 2 and 20 mm path length tips were selected for detecting the concentration of CuATSM at pH 1.2 and pH 6.8 respectively. A dry CuATSM powder was dissolved in DMSO resulting a stock solution at known concentration, and then the solution was used to generate standard curves by serial addition. Standard curves were determined from the area under the second derivative curve in wavelength range 340-366 nm (for pH 1.2) and 445-465 nm (for pH 6.8) so as to avoid over saturation of the UV signal.
# The solubility of CuATSM was determined in pH 6.8 buffer. Samples of CuATSM were introduced into pH 6.8 buffer as powders, thus, unlike for standards, the final solutions contained no solvents in the background. The 20 mm (at pH 6.8) path length tip was selected for detecting the concentration of CuATSM in solution. All experiments were performed at room temperature 25±3° C.
# The 20 mm pathlength tip was selected for detecting the concentration of the compounds in pH 6.8 buffer solution. All experiments were performed at room temperature, 25±3° C., and were performed in duplicate.
# Kinetic solubility determination of CuATSM:saccharin (1:2). CuATSM:saccharin (1:2) was prepared according to the methods of EXAMPLE 3. The kinetic solubility profile of CuATSM:saccharin (1:2) was determined in pH 6.8 buffer similarly to the methods given in EXAMPLE 13 and EXAMPLE 14. Standard curves of CuATSM:saccharin (1:2) and saccharin were generated and compared to the standard curves of CuATSM. Saccharin concentrations in the buffer solution were determined from the saccharin standard curves in the 292-310 nm wavelength region, using the Zero Intercept Method so as to minimize spectral interference from CuATSM. […] The upper concentration limit of the assay was approximately 0.12 mg/mL of CuATSM:saccharin (1:2), resulting in upper concentrations limits for CuATSM and for saccharin in solution approximately 60 μg/mL each. All experiments were performed at about 25±3° C., and were performed in duplicate.
# [2] = Pharmacokinetics in mice after oral administration, plasma and brain by LC/MS/MS; conditions: 30 mg/kg CuXTSM API oral; for Brain AUC0-24h / Brain AUC0-inf / Brain Cmax / Brain Tmax / Brain t½ (number of time points): mouse brain; for Brain t½ (number of time points) / Plasma t½ (number of time points): bracket = number of time points; for Plasma Ke / Plasma MRT / Plasma AUC0-24h / Plasma AUC0-inf / Plasma Cmax / Plasma Tmax / Plasma t½ (number of time points): mouse plasma; for Plasma AUC0-24h / Plasma AUC0-inf / Plasma Cmax / Plasma Tmax: CuATSM in SSV, NCDs in water; for Brain:plasma-ratio (AUC-based) / Brain:plasma-ratio (Cmax-based): mouse
# Protocol: CuATSM was suspended in “Standard Suspension Vehicle” (SSV), consisting of 0.9% (w/v) NaCl, 0.5% (w/v) sodium carboxymethylcellulose, 0.5% (v/v) benzyl alcohol, and 0.4% (v/v) Tween 80 in deionized water. All other test compounds were suspended in sterile water. Samples were prepared by adding one of the compounds to the liquid vehicle (water or SSV) in a vial and then vortexing the mixture for 3 min with a stir bar inside. If the powdered sample was not completely wetted or not completely suspended, the sample was vortexed for another minute. If wetting was still incomplete, the vial was sonicated until a fully wetted suspension was obtained. Between doses, the sample was stirred on medium speed and then vortexed for an additional 20 s immediately before the next dose was removed from the vial. All dosing was completed from a single preparation of the suspension within 60 min of adding the compound to water or SSV.
# Mice were deprived of pelleted food overnight, during which time 10% dextrose, as Dextroput, was provided in tap water, after which the test items were administrated orally by gavage in water or SSV. […] The blood samples were kept on ice after sampling and centrifuged at +4° C., 1800×g for 5 min to prepare plasma. Plasma samples were extracted and transferred into pre-labelled Eppendorf test tubes (50 μl exact in one vial, and the remaining in a second vial) and frozen at −20° C. The samples were transported on dry ice to the analysis site. Following blood sampling, mice were euthanized by cervical dislocation, and then brains were collected through opened skulls. The brains were weighed and placed in test tubes and placed on water ice. Phosphate-buffered saline (PBS, pH 7.4), 4 ml per 1 g of brain tissue, was added to the test tube and brains were homogenized by using Ultra-Turrax T25 homogenizer/S25N-10G (Setting 2, 9500 rpm, approximately 10 s). The homogenate was frozen at −20° C. immediately after homogenization. The samples were transported on dry ice to the analysis site.
# Dosed mice were studied in triplicate for each of the seven time points, totaling 21 mice dosed for each studied compound. Plasma samples and brain homogenates from four untreated animals were also obtained. The plasma samples were thawed at room temperature (RT), mixed with 2-fold volume of acetonitrile, shaken and centrifuged for 10 min at 13 000×g (Heraeus Pico 17 centrifuge), after which supernatants were transferred into glass vials. The brain homogenate samples were mixed with 2-fold volume of acetonitrile:methanol, shaken, ultrasonicated for 20 min, and centrifuged for 10 min at 13 000×g (Heraeus Pico 17 centrifuge), after which supernatants were transferred into glass vials. […] Quality control (QC) samples were prepared for concentrations 10, 100 and 1000 ng/ml in plasma or brain homogenates.
# Elution was with gradient of 0.5% formic acid/acetonitrile (99:1) increased step-wise to (5:95).
# The pharmacokinetic parameters for study compounds in plasma and brain were calculated using standard non-compartmental methods. The elimination phase half-life (t½) was calculated by least-squares regression analysis of the terminal linear part of the log concentration-time curve. […] The maximum concentration (Cmax) and the time to Cmax (Tmax) were derived directly from the concentration data. Mean Residence Time, MRT, and elimination rate constant, Ke, were also calculated from the concentration vs. time data of plasma samples.
# [3] = pH 6.8 buffer, powder added, 25±3° C., 12-hour monitoring
SMILES,Brain AUC0-24h [2] [ng·min/g],Brain AUC0-inf [2] [ng·min/g],Brain Cmax [2] [ng/g],Brain Tmax [2] [h],Brain t½ (number of time points) [2],Plasma Ke [2] [min⁻¹],Plasma MRT [2] [h],Plasma AUC0-24h [2],Plasma AUC0-inf [2] [ng·min/mL],Plasma Cmax [2] [ng/mL],Plasma Tmax [2] [h],Plasma t½ (number of time points) [2],Brain:plasma-ratio (AUC-based) [2],Brain:plasma-ratio (Cmax-based) [2],"time to maximum concentration of CuATSM ([1]; pH 6.8 buffer, 25±3° C.) [h]","maximum concentration of CuATSM in solution [1, 3]",dissolved CuATSM as share of the total available in the assay ([1]; pH 6.8 buffer),other results
"CNC1=NN=C(C)C(C)=NN=C(NC)[S][Cu][S]1 [CuATSM, Copper(II) diacetyl-di(N4-methyl)thiosemicarbazone, reference compound]",10944,13843,28.4,1,199 (3) min,0.0035,5.25,9637 ng·min/mL,9698,22.2,2,196 (4) min,1.1,1.3,–,–,–,concentration of CuATSM at the end of the 12-hour monitoring period ([1]; pH 6.8): remained at that concentration; time to maximum concentration of CuATSM ([1]; pH 6.8): approximately 8 hours
CNC1=NN=C(C)C(C)=NN=C(NC)[S][Cu][S]1.O=C(O)C(O)C(O)C(O)C(O)CO.O=C(O)C(O)C(O)C(O)C(O)CO [CuATSM:gluconic acid (1:2)],71554,73544,133,4,261 (3) min,0.0028,5.95,25 163 min*ng/mL,25696,36.5,4,252 (3) min,2.8,3.6,≤ 0.11,approximately 3 μg/mL,less than 1%,"solubility in DMSO (did not fully dissolve at) ([1]; DMSO stock solution): < 400 µg/mL; time to maximum concentration of CuATSM ([1]; pH 1.2 KCl/HCl buffer): ≤ 0.3 h; maximum concentration of CuATSM in solution ([1]; pH 1.2 KCl/HCl buffer, 3-hour monitoring): approximately 195 μg/mL; dissolved CuATSM as share of the total amount of CuATSM in the sample ([1]; pH 1.2 buffer, within 0.3 hours, kept for 3 hours): 33%; change in the chemical identity of CuATSM after dissolution (UV spectral shifts) ([1]; pH 6.8 buffer, 450 nm shifted to 415 nm within the first 0.3 hours): reaction or decomposition"
CNC1=NN=C(C)C(C)=NN=C(NC)[S][Cu][S]1.O=C1NS(=O)(=O)c2ccccc21.O=C1NS(=O)(=O)c2ccccc21 [CuATSM:saccharin (1:2)],30643,30979,71.8,0.25,202 (2) min,0.0040,6.25,20 333 min*ng/mL,20436,29.0,2,170 (2) min,1.5,2.5,≤ 0.8,approximately 2 μg/mL,less than 1%,"time to maximum concentration of saccharin ([1]; pH 6.8 buffer): ≤ 0.3 h; concentration of CuATSM at the end of the 12-hour monitoring period ([1]; pH 6.8 buffer, 25±3° C.): approximately 1 μg/mL; maximum concentration of saccharin in solution ([1]; pH 6.8 buffer, unchanged over the 12-hour monitoring period): approximately 60 μg/mL"
